System: stage V gametocytes of P. falciparum (3D7 pULG8-GFP strain)
Test: Post-screening validation with 96-well plate microsphiltration (Paris)
Type: cell-based, Plasmodium falciparum
Settings: eight-hour exposure

CNC(=O)N1C[C@@H](C)N(c2ccc(C(=O)Nc3ccc(-c4ccc(-c5c[nH]c([C@@H]6CCCN6C(=O)[C@@H](NC(=O)OC)C(C)C)n5)cc4)c(OC(F)(F)F)c3)cn2)C[C@@H]1C [TD-6450]
concentration that significantly stiffens mature gametocytes: 200 nM

From publication PMC10082216 (Nature Communications, 2023)
